# Measurements from ChEMBL document CHEMBL1821677, “Identification of novel allosteric modulators for the G-protein coupled US28 receptor of human cytomegalovirus” (Bioorg Med Chem Lett, 2011).
# Active and inactive are the calls of the source. No cut-off for these calls is given here.
# Tests used:
# [1] = Inverse agonist activity at HCMV TB40/E US28 expressed in human HEK cells assessed as Elk-1 activation preincubated for 1 hrs measured after 20 to 24 hrs by luciferase reporter gene assay; format: functional, cell-based; settings: Human betaherpesvirus 5, TB40/E, HEK293
# [2] = Cytotoxicity against mock transfected human HEK cells at 10 uM after 20 to 24 hrs by Cell titer cell proliferation assay; format: cell-based; settings: hek293, 10 µM
# [3] = test system: G-protein coupled receptor homolog US28 (Human cytomegalovirus); assay: Efficacy at HCMV TB40/E US28 expressed in human HEK cells assessed as Elk-1 activation preincubated for 1 hrs measured after 20 to 24 hrs by PathDetect trans Elk-1 reporter gene assay relative to control; settings: Human betaherpesvirus 5, HEK293
# [4] = target: D(2) dopamine receptor (Homo sapiens) (UniProt P14416); assay: Binding affinity to human dopamine D2L receptor expressed in HEK cells assessed as Elk-1 activation preincubated for 1 hrs measured after 20 to 24 hrs by PathDetect trans Elk-1 reporter gene assay; format: cell-based; settings: HEK293
# [5] = target: D(2) dopamine receptor (Homo sapiens) (UniProt P14416); assay: Binding affinity to dopamine D2L receptor
# D(2) dopamine receptor (Homo sapiens), sequence (P14416 whole entry): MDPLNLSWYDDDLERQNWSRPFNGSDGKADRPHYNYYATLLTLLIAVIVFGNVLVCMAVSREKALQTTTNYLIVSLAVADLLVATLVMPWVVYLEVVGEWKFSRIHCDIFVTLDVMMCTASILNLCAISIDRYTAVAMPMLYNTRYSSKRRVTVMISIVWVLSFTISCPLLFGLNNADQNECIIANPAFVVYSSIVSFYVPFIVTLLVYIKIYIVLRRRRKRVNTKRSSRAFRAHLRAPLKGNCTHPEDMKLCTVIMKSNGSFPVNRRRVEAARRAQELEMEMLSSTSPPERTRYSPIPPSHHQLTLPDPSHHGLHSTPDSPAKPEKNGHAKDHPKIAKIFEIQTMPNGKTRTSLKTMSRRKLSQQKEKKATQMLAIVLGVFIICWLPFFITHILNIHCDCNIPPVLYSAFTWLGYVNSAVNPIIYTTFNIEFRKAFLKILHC
SMILES,EC50 ([1]; read-out: EC50) [nM],EC50 ([1]; read-out: pEC50 (converted)) [nM],Activity [2],Efficacy [3] [%],Activity [4],Activity [5] [µM]
CC1(COC(=O)Cc2ccccc2)Cc2ccccc2CN1C(=O)Cc1ccccc1 (configuration not stated),3400,3470,Non-toxic,-37,–,–
CC1(COC(=O)c2ccco2)Cc2ccccc2CN1C(=O)c1ccco1 (configuration not stated),7400,7410,Non-toxic,-18,–,–
CC1(CO)Cc2ccccc2C(=O)N1c1ccccc1 (configuration not stated),4400,4370,–,41,–,–
CC1(CCO)Cc2ccccc2C(=O)N1c1ccccc1 (configuration not stated),1000,1020,Non-toxic,-14,–,–
CCCCCCCCCC(=O)N(CCN(C)C)CC1(C)Cc2ccccc2C(=O)N1 (configuration not stated),1500,1510,Non-toxic,-20,–,–
CC1(CCOC(=O)Cc2ccccc2)Cc2ccccc2CN1C(=O)Cc1ccccc1 (configuration not stated),7500,7590,Toxic,-51,–,–
CCCC[C@H]1Cc2ccccc2[C@@H](c2ccccc2)N1 (relative stereo),280,275,–,22,Active,–
N#CC(CCCN1CCC(O)(c2ccc(Cl)cc2)CC1)(c1ccccc1)c1ccccc1 [BERLEX COMPOUND],4500,4570,–,-22,–,2
CCC[C@H]1Cc2c(Cl)cccc2[C@@H](c2ccccc2)N1 (relative stereo),1500,1550,–,27,–,–
CSc1ccc2c(c1)C(N1CCN(C)CC1)Cc1ccccc1S2 (configuration not stated) [METITEPINE],350,355,–,10,–,–
CCCC[C@H]1Cc2ccc(F)cc2[C@@H](c2ccccc2)N1 (relative stereo),1800,1780,–,15,–,–
CCCC[C@H]1Cc2ccc(Cl)cc2[C@@H](c2ccccc2)N1 (relative stereo),7800,7760,–,12,–,–
CCCCCCCCCC(=O)N(CCN(C)C)C1CCCCC12Cc1ccccc1C(=O)N2 (configuration not stated),4800,4790,–,-22,–,–
CCCCCC[C@H]1Cc2c(Cl)cccc2[C@@H](c2ccccc2)N1 (relative stereo),2300,2290,–,21,–,–
CCCC[C@@H]1Cc2ccc(F)cc2[C@@H](c2ccccc2)N1 (relative stereo),2000,2000,–,15,–,–
CCCC[C@@H]1Cc2c(Cl)cccc2[C@@H](c2ccccc2)N1 (relative stereo),1400,1410,–,16,–,–
CC1(COC(=O)c2ccccc2)Cc2ccccc2CN1C(=O)c1ccccc1 (configuration not stated),8500,8510,Toxic,-62,–,–
CCCC[C@H]1Cc2c(Cl)cccc2[C@@H](c2ccccc2)N1 (relative stereo),130,129,–,21,Active,–
CC1(CCOC(=O)c2ccccc2)Cc2ccccc2CN1C(=O)c1ccccc1 (configuration not stated),13500,13500,Toxic,-70,–,–
